According to paper doi:10.1101/2022.02.23.481604v2 (biorxiv, 2022):
Structures can show the parent of a compound that is named as a salt. One block for each molecule: values may come before it.

Legend:
Assay in all cases: cAMP formation in membranes
[1] = biological target: mAC3 activated by Gsα (Q227L) (Homo sapiens, UniProt O60266); assay type: biochemical
[2] = biological target: mAC6 activated by Gsα (Q227L) (Homo sapiens, UniProt O43306); assay type: biochemical
[3] = biological target: mAC7 activated by Gsα (Q227L) (Homo sapiens, UniProt P51828); assay type: biochemical
mAC7 activated by Gsα (Q227L), sequence (P63092 2-394 Q227L partner, one chain of several): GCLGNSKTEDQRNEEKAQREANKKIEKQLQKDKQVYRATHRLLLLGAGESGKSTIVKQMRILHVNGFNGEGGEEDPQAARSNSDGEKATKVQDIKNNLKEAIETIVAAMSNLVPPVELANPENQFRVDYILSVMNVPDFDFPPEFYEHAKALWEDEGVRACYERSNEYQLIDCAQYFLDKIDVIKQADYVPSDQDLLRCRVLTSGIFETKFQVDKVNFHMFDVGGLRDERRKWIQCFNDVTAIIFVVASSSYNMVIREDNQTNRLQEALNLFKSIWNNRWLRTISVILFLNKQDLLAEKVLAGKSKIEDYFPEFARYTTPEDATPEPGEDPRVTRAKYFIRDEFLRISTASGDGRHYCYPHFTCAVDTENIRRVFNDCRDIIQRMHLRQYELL

[4] = biological target: mAC9 activated by Gsα (Q227L) (Homo sapiens, UniProt O60503); assay type: biochemical
mAC9 activated by Gsα (Q227L), sequence (O60503 whole entry, stated change not applied): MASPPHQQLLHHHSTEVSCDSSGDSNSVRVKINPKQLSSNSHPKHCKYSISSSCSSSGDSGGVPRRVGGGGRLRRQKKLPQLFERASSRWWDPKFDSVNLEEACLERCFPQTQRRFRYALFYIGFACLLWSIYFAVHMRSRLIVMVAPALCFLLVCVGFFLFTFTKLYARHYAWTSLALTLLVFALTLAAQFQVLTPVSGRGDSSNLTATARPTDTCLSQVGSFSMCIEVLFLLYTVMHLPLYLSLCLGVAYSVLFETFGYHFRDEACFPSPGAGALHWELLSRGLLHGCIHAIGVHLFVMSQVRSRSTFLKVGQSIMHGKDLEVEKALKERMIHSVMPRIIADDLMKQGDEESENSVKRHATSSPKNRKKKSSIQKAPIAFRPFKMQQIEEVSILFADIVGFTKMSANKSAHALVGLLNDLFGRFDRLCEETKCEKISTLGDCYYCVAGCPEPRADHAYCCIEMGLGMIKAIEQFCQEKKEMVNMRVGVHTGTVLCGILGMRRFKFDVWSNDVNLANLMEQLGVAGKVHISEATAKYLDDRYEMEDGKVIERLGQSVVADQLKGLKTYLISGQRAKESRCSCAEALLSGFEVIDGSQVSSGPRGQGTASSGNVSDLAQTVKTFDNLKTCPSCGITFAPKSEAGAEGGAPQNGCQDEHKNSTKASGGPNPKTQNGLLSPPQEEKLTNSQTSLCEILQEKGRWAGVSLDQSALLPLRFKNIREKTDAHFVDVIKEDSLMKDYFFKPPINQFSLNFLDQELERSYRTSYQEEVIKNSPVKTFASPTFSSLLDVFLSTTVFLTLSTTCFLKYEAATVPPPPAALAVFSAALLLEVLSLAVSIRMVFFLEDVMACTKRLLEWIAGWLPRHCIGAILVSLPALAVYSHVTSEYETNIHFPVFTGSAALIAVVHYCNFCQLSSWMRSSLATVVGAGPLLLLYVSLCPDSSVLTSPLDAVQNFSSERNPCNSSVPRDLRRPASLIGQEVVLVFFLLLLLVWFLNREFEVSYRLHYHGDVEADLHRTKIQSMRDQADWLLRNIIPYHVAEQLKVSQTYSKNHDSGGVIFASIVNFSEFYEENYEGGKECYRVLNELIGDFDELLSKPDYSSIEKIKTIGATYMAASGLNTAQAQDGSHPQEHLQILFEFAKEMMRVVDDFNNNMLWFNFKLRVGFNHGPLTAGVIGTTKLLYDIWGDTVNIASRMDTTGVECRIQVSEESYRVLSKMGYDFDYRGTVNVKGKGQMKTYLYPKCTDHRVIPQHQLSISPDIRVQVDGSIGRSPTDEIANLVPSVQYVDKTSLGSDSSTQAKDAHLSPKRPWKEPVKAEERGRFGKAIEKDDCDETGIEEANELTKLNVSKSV
mAC9 activated by Gsα (Q227L), sequence (P63092 2-394 Q227L partner): as the sequence (P63092 2-394 Q227L partner, one chain of several) above

mAC7 = biological target: T1, mAC7 (Homo sapiens, UniProt P51828); assay type: biochemical
T1 sequence (P51828 1-1080): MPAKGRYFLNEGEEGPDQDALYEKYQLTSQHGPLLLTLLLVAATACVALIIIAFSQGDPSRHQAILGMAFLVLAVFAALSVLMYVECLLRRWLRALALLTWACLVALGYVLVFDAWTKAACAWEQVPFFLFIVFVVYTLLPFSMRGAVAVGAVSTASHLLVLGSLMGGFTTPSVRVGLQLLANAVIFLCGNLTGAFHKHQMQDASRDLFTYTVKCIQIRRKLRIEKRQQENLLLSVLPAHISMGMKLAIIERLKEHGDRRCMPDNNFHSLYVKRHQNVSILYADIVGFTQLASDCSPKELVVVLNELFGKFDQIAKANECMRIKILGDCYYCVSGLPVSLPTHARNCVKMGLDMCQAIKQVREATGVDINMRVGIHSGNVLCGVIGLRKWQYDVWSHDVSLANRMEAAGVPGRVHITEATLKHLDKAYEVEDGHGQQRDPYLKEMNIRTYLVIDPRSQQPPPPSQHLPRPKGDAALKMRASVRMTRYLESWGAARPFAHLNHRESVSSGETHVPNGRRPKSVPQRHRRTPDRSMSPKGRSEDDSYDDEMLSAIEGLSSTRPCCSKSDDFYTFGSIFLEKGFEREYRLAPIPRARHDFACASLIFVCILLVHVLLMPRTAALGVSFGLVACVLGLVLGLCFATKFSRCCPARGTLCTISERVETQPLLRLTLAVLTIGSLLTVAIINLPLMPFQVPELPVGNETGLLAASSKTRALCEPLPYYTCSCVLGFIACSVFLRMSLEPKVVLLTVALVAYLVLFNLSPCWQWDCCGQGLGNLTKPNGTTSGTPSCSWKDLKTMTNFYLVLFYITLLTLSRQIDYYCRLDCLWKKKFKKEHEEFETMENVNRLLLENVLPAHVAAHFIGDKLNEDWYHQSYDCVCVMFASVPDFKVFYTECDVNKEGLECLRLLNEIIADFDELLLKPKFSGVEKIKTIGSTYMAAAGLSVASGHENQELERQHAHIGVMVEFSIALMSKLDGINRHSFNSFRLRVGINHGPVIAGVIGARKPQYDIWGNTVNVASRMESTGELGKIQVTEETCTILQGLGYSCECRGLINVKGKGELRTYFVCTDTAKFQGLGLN

mAC1 = mAC1 (Homo sapiens, UniProt Q08828); assay type: biochemical
mAC1, sequence (Q08828 whole entry): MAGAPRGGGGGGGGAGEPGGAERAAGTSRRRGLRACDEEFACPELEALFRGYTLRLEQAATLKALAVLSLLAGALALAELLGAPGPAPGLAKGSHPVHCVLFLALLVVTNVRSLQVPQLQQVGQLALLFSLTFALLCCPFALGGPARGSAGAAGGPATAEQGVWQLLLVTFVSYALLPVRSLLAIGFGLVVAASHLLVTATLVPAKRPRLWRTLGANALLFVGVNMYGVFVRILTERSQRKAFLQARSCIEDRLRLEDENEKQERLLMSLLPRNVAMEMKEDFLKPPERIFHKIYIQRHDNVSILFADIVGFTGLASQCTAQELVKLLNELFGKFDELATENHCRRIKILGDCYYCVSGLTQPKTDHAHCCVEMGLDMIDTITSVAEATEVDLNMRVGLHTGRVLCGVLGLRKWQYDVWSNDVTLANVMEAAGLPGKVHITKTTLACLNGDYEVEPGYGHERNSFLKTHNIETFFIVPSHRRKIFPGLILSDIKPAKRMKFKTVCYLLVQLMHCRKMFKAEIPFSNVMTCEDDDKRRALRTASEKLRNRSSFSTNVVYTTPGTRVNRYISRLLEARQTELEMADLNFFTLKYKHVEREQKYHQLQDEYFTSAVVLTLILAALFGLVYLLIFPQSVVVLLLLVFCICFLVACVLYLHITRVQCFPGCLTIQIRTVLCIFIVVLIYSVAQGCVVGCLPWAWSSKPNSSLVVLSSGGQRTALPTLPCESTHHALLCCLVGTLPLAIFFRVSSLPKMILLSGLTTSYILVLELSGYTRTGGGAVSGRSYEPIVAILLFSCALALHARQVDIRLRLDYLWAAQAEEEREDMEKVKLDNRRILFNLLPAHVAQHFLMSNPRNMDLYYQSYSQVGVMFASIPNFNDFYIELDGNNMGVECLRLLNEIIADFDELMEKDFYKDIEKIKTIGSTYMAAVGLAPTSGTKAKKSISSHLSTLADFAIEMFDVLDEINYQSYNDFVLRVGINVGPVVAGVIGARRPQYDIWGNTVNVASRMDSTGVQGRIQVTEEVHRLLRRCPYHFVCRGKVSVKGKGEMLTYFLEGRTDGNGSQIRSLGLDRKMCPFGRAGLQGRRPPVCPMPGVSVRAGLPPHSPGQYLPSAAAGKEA

[5] = substrate: Nc1ncnc2c1ncn2[C@@H]1O[C@H](COP(=O)(O)OP(=O)(O)OP(=O)(O)O)[C@@H](O)[C@H]1O; assay type: biochemical, Homo sapiens; conditions: without SDPA, Gsα presence inferred from Vmax, Mg2+, pH 7.5

mAC3 activated by Gsα (Q227L), sequence (P63092 2-394 Q227L partner, one chain of several): as the sequence (P63092 2-394 Q227L partner, one chain of several) above
mAC6 activated by Gsα (Q227L), sequence (O43306 whole entry, stated change not applied): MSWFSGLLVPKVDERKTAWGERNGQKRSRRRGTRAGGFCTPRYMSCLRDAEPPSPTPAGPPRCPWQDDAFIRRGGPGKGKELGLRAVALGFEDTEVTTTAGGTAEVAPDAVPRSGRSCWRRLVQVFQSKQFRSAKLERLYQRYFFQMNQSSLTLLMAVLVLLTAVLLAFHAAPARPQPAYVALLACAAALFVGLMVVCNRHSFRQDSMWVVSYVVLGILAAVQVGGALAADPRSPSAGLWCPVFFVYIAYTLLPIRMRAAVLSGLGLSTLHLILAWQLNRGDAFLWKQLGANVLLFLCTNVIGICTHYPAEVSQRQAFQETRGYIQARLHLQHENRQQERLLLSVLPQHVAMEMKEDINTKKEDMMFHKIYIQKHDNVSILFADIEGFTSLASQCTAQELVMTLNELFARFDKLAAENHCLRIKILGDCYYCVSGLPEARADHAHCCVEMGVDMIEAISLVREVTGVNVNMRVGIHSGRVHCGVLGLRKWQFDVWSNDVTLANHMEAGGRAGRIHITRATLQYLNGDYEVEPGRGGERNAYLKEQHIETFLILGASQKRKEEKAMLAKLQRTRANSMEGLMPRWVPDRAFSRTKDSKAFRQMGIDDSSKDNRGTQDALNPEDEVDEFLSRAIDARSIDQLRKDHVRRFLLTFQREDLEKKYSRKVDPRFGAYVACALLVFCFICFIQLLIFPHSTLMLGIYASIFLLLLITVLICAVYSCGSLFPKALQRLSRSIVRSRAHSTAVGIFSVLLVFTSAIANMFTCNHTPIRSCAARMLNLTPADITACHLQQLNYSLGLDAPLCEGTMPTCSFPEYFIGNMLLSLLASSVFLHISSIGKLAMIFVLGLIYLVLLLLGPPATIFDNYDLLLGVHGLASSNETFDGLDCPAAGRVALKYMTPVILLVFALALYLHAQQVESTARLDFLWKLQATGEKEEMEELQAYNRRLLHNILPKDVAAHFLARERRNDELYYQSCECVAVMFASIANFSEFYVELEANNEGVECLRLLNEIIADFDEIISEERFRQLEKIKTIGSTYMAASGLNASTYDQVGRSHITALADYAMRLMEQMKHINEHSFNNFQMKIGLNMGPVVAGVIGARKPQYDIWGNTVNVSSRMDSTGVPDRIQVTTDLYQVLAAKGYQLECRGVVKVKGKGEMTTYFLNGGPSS
mAC6 activated by Gsα (Q227L), sequence (P63092 2-394 Q227L partner): as the sequence (P63092 2-394 Q227L partner, one chain of several) above

Molecule: CC/C=C\C/C=C\C/C=C\C/C=C\C/C=C\C/C=C\CCC(=O)OC[C@H](COP(=O)(O)O)OC(=O)CC/C=C\C/C=C\C/C=C\C/C=C\C/C=C\C/C=C\CC [DDPA, 1,2-didocosahexaenoyl-sn-glycero-3-phosphate (sodium salt)]
EC50 [1]: 1400 nM

Molecule: CCCCC/C=C\C/C=C\C/C=C\C/C=C\CCCC(=O)O[C@H](COC(=O)CCCCCCCCCCCCCCCCC)COP(=O)(O)O [SAPA, 1-stearoyl-2-arachidonoyl-sn-glycero-3-phosphate (sodium salt)]
EC50 [1]: 4800 nM

Molecule: C=C[C@@]1(C)CC(=O)[C@]2(O)[C@@]3(C)[C@@H](O)CCC(C)(C)[C@@H]3[C@H](O)[C@H](OC(C)=O)[C@@]2(C)O1 [forskolin]
EC50 (mAC7): 512000 nM
EC50 (mAC1): 2000 nM

B1: mAC3 activated by Gsα (Q227L) (Homo sapiens) (protein)
chain: MPRNQGFSEPEYSAEYSAEYSVSLPSDPDRGVGRTHEISVRNSGSCLCLPRFMRLTFVPESLENLYQTYFKRQRHETLLVLVVFAALFDCYVVVMCAVVFSSDKLASLAVAGIGLVLDIILFVLCKKGLLPDRVTRRVLPYVLWLLITAQIFSYLGLNFARAHAASDTVGWQVFFVFSFFITLPLSLSPIVIISVVSCVVHTLVLGVTVAQQQQEELKGMQLLREILANVFLYLCAIAVGIMSYYMADRKHRKAFLEARQSLEVKMNLEEQSQQQENLMLSILPKHVADEMLKDMKKDESQKDQQQFNTMYMYRHENVSILFADIVGFTQLSSACSAQELVKLLNELFARFDKLAAKYHQLRIKILGDCYYCICGLPDYREDHAVCSILMGLAMVEAISYVREKTKTGVDMRVGVHTGTVLGGVLGQKRWQYDVWSTDVTVANKMEAGGIPGRVHISQSTMDCLKGEFDVEPGDGGSRCDYLEEKGIETYLIIASKPEVKKTATQNGLNGSALPNGAPASSKSSSPALIETKEPNGSAHSSGSTSEKPEEQDAQADNPSFPNPRRRLRLQDLADRVVDASEDEHELNQLLNEALLERESAQVVKKRNTFLLSMRFMDPEMETRYSVEKEKQSGAAFSCSCVVLLCTALVEILIDPWLMTNYVTFMVGEILLLILTICSLAAIFPRAFPKKLVAFSTWIDRTRWARNTWAMLAIFILVMANVVDMLSCLQYYTGPSNATAGMETEGSCLENPKYYNYVAVLSLIATIMLVQVSHMVKLTLMLLVAGAVATINLYAWRPVFDEYDHKRFREHDLPMVALEQMQGFNPGLNGTDRLPLVPSKYSMTVMVFLMMLSFYYFSRHVEKLARTLFLWKIEVHDQKERVYEMRRWNEALVTNMLPEHVARHFLGSKKRDEELYSQTYDEIGVMFASLPNFADFYTEESINNGGIECLRFLNEIISDFDSLLDNPKFRVITKIKTIGSTYMAASGVTPDVNTNGFASSNKEDKSERERWQHLADLADFALAMKDTLTNINNQSFNNFMLRIGMNKGGVLAGVIGARKPHYDIWGNTVNVASRMESTGVMGNIQVVEETQVILREYGFRFVRRGPIFVKGKGELLTFFLKGRDKLATFPNGPSVTLPHQVVDNS
Km [5]: 100 µM

Next, values leading:

EC50 [1]: 1300 nM
Molecule: CC/C=C\C/C=C\C/C=C\C/C=C\C/C=C\C/C=C\CCC(=O)O[C@H](COC(=O)CCCCCCCCCCCCCCC)COP(=O)(O)O [PDPA, 1-palmitoyl-2-docosahexaenoyl-sn-glycero-3-phosphate (sodium salt)]

EC50 [2]: 700 nM
EC50 [1]: 900 nM
EC50 [3]: 700 nM
EC50 [4]: 700 nM
Molecule: CC/C=C\C/C=C\C/C=C\C/C=C\C/C=C\C/C=C\CCC(=O)O[C@H](COC(=O)CCCCCCCCCCCCCCCCC)COP(=O)(O)O [SDPA, 1-stearoyl-2-docosahexaenoyl-sn-glycero-3-phosphate (sodium salt)]

EC50 [1]: 1200 nM
Molecule: CC/C=C\C/C=C\C/C=C\C/C=C\C/C=C\C/C=C\CCC(=O)O[C@H](COC(=O)CCCCCCCCCCCCCCCCC)COP(=O)(O)OC[C@H](N)C(=O)O [SDPS, 1-stearoyl-2-docosahexaenoyl-sn-glycero-3-phospho-L-serine]
